What all share (format): in vivo, mouse
The subject of assay [1] is Rh30 alveolar rhabdomyosarcoma xenograft. The experiment in a line: CCI-779 suppression of Rh30 rhabdomyosarcoma xenograft tumor growth. The settings on record: Rh30 orthotopic xenograft, SCID beige mice, 20 mg/kg IP every 3 days for 30 days, calipers. As for the experimental part: (§1) (FIG. 6A) Time dependent CCI-779 inhibition of phosphorylation of mTOR pathway downstream substrates within tumor tissue in a xenograft treatment model. […] (FIG. 6B) CCI-779 inhibited tumor growth in Rh30 and RD mouse xenograft models. 2×10^6 cells in 0.2 mL total volume per mouse, from either Rh30 alveolar or RD embryonal cell lines, were injected orthotopically into the left hind leg gastrocnemius muscle of a SCID beige murine model. After 1 week, mice were assigned to control (n=8) or CCI-779 treatment groups (n=8). Tumor volume, as measured with calipers, was less in the CCI-779 treatment group as compared to the vehicle alone for both the Rh30 and RD xenografts --▴-- RD control, -▪- Rh30 plus CCI-779, -- ♦-- Rh30 control --X- RD plus CCI-779, (RD p=0.00008; Rh30 p=0.0002, Student's t-test). (FIG. 6C) CCI-779 was administered at 20 mg/kg/IP every 3 days for 30 days. Protein extracts from Rh30 and RD mouse xenograft tumors or uninvolved muscle were treated with CCI-779 or vehicle for 30 days and analyzed by Western blotting for S6 and 4EBP1 phosphorylation.
(§2) 5. In vivo xenograft tumor model. […] Tumor growth was measured every 3 days with calipers, and tumor volume was calculated by the formula V (mm^3)=a×b^2, where a is the longest tumor axis, and b is the shortest tumor axis. […]

Assay [2] concerns RD embryonal rhabdomyosarcoma xenograft. The experiment in a line: CCI-779 suppression of RD rhabdomyosarcoma xenograft tumor growth. The settings on record: RD orthotopic xenograft, SCID beige mice, 20 mg/kg IP every 3 days for 30 days, calipers. As for the experimental part: as §1, §2
In assay [3] the test system is mTOR pathway substrates pS6 Ser235/236 and 4EBP1 Thr70. In words: Time dependent inhibition of phosphorylation of mTOR pathway downstream substrates in xenograft treatment model (FIG. 6A). The settings on record: non-involved muscle and tumor tissue, compared to actin. Here is the method: as §1, §2
The test system of assay [4] is mTOR downstream targets 4EBP1 and S6. In words: Western blotting for S6 and 4EBP1 phosphorylation, Rh30 xenograft tumors or uninvolved muscle. As for the experimental part: as §1, §2
On the technique in general: In western blotting, separated proteins are transferred to a membrane and probed.

Assay [5] shares this test system. In words: Western blotting for S6 and 4EBP1 phosphorylation, RD xenograft tumors or uninvolved muscle. As for the experimental part: as §1, §2

These results are taken from US8628931B2, “mTOR pathway theranostic” (George Mason Intellectual Properties, Inc., priority 2005, dated 2014).

The structures appear in SMILES notation.

As for `CO[C@H]1C[C@@H]2CC[C@@H](C)[C@@](O)(O2)C(=O)C(=O)N2CCCC[C@H]2C(=O)O[C@H]([C@H](C)C[C@@H]2CC[C@@H](OC(=O)C(C)(CO)CO)[C@H](OC)C2)CC(=O)[C@H](C)/C=C(\C)[C@@H](O)[C@@H](OC)C(=O)[C@H](C)C[C@H](C)/C=C/C=C/C=C/1C` [CCI-779, 40-[3-hydroxy(hydroxymethyl)methylpropanoate]-rapamycin], the “Tumor volume / tumor growth compared to vehicle alone” value in assay [1] was “less and profoundly reduced the growth”; in assay [2], “less and profoundly reduced the growth”. Also, the “Phosphorylation of 4EBP1 Thr70” value in assay [3] is on record as “inhibited phosphorylation”. Besides, the “Phosphorylation of pS6 Ser235/236” value in assay [3] is given as “inhibited phosphorylation”. In addition, the “Phosphorylation of mTOR downstream targets (4EBP1 and S6)” value in assay [4] (Rh30 alveolar xenograft derived tumors) and in assay [5] (RD embryonal xenograft derived tumors) was “inhibited the expected phosphorylation” throughout. The “Phosphorylation of 4EBP1” value in assay [4] (Rh30 muscle and tumor cells, 20 mg/kg IP every 3 days for 30 days, Western blot) was “suppresses phosphorylation”; in assay [5] (RD muscle and tumor cells, 20 mg/kg IP every 3 days for 30 days, Western blot), “suppresses phosphorylation”.
